Experimental data: ChEMBL document CHEMBL3217643, “Discovery of hydroxamate bioisosteres as KAT II inhibitors with improved oral bioavailability and pharmacokinetics” (Medchemcomm, 2013); call rule not given here
pIC50, pKi: −log10 of the molar value.

Key:
[1] = Half life in human hepatocytes; format: ADME, cell-based, Hepatocyte
[2] = Oral bioavailability in rat; format: ADME, organism-based; conditions: in vivo
[3] = Oral bioavailability in dog; format: ADME, organism-based, Canis lupus familiaris; conditions: in vivo
[4] = biological target: T1, Kynurenine/alpha-aminoadipate aminotransferase, mitochondrial (Homo sapiens, UniProt Q8N5Z0); test: Inhibition of KAT2 (unknown origin)
[5] = biological target: T1, Kynurenine/alpha-aminoadipate aminotransferase, mitochondrial; test: Ratio of Kinact to Ki for KAT2 (unknown origin)
Target sequence in this assay (Q8N5Z0 30-425 limits assumed): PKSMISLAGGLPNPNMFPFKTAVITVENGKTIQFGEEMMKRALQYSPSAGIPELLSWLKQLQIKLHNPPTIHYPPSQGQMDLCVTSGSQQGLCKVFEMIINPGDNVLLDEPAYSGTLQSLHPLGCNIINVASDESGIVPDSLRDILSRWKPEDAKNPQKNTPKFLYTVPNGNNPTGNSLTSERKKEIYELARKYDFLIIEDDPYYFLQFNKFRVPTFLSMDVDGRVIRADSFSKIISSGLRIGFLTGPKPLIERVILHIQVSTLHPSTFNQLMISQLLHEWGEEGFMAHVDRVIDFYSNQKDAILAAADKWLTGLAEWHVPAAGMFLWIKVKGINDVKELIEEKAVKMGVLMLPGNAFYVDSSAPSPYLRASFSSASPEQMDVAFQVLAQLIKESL

[6] = Drug degradation assessed as metabolite formation by LC-MS/MS analysis; format: physicochemical
P-gp = test: Efflux ratio in MDCK cells overexpressing Pgp; format: ADME, cell-based, Canis lupus familiaris; conditions: dog, MDCK-MDR1
Brain = test: Drug uptake in CD-1 mouse brain; format: ADME, tissue-based; conditions: in vivo
[7] = Half life in human liver microsomes; format: ADME
[8] = Blood clearance in iv dosed dog; format: ADME, organism-based, Canis lupus familiaris
[9] = Drug uptake in CD-1 mouse cerebral spinal fluid; format: ADME, Cerebrospinal fluid; conditions: in vivo
[10] = Blood clearance in iv dosed rat; format: ADME, organism-based

COc1cccc(Oc2ccc3c(c2)CC(N)c2n[nH]c(=O)n2-3)c1 (stereo not given)
half-life [1]: 1.9 h
bioavailability [2]: 40%
bioavailability [3]: 100%
pIC50 [4]: 7.19
pKi [4]: 8.29
Kinact [4]: 0.0155 min⁻¹
Ratio [5]: 5060 M⁻¹ s⁻¹
Retention_time [6]: 31.8 min
efflux ratio (P-gp): 1.51
Drug uptake (Brain): Active
half-life [7]: > 1.73 h
clearance [8]: 4.5 mL/min/kg
Drug uptake [9]: Active
clearance [10]: 78.4 mL/min/kg

COc1cccc(Oc2ccc3c(c2)CC(N)c2nncn2-3)c1 (stereo not given)
pIC50 [4]: 6.70
pKi [4]: 7.09
Kinact [4]: 0.0141 min⁻¹
Ratio [5]: 2920 M⁻¹ s⁻¹

N[C@H]1Cc2ccccc2N(O)C1=O
bioavailability [2]: 10.8%
bioavailability [3]: 18.5%
